Reference: patent US8404718B2, “Combinations of pyrazole kinase inhibitors” (Astex Therapeutics Limited, priority 2005, dated 2013)

These molecules were tested on human colon carcinoma cell line HCT 116 (assay: Anti-proliferative activity, Alamar Blue assay). Settings: 72 hours compound incubation, read-out: IC50, inhibition of cell growth, HCT 116.
Assay type: cell-based
Protocol: The anti-proliferative activities of the combinations of the invention, as well as the individual components of the combinations, are determined by measuring the ability of the compounds to inhibition of cell growth in a number of cell lines. Inhibition of cell growth is measured using the Alamar Blue assay (Nociari, M. M, Shalev, A., Benias, P., Russo, C. Journal of Immunological Methods 1998, 213, 157-167). The method is based on the ability of viable cells to reduce resazurin to its fluorescent product resorufin. For each proliferation assay cells are plated onto 96 well plates and allowed to recover for 16 hours prior to the addition of inhibitor compounds for a further 72 hours. At the end of the incubation period 10% (v/v) Alamar Blue is added and incubated for a further 6 hours prior to determination of fluorescent product at […]. In the case of the non-proliferating cell assay cells are maintained at confluence for 96 hour prior to the addition of inhibitor compounds for a further 72 hours. The number of viable cells is determined by Alamar Blue assay as before. All cell lines are obtained from ECACC (European Collection of cell Cultures).

O=C(CO)Nc1c[nH]nc1C(=O)Nc1ccc(F)cc1 [Example 29, 4-(2-Hydroxy-acetylamino)-1H-pyrazole-3-carboxylic acid (4-fluoro-phenyl)-amide] and O=C(Nc1ccc(F)cc1)c1n[nH]cc1NC(=O)C(F)(F)F [Example 3, 4-(2,2,2-Trifluoro-acetylamino)-1H-pyrazole-3-carboxylic acid (4-fluoro-phenyl)-amide] cannot be ordered by IC50: under 100 µM for the first, under 100 µM for the second.

O=C(NC1CCCC1)c1n[nH]cc1NC(=O)c1c(F)cccc1F [Example 75] and O=C(NC1CCOCC1)c1n[nH]cc1NC(=O)c1c(F)cccc1F [Example 66] cannot be ordered by IC50: under 20 µM for the first, under 20 µM for the second.

COc1cccc(C(=O)Nc2c[nH]nc2C(=O)Nc2ccc(F)cc2)c1F [Example 51, 4-(2-fluoro-3-methoxy-benzoylamino)-1H-pyrazole-3-carboxylic acid (4-fluoro-phenyl)-amide] and COc1ccccc1C(=O)Nc1c[nH]nc1C(=O)Nc1ccc(F)cc1 [Example 25, 4-(2-Methoxy-benzoylamino)-1H-pyrazole-3-carboxylic acid (4-fluoro-phenyl)-amide] cannot be ordered by IC50: under 100 µM for the first, under 20 µM for the second.

O=C(NC1CCN(Cc2ccccc2)C1)c1n[nH]cc1NC(=O)c1c(F)cccc1F (centres unmarked) [Example 85] and O=C(NCc1ccccc1)c1n[nH]cc1NC(=O)c1c(F)cccc1F [Example 90] cannot be ordered by IC50: under 100 µM for the first, under 20 µM for the second.

COc1nc(Cl)cc(C)c1C(=O)Nc1c[nH]nc1C(=O)NC1CCNCC1 [Example 195] and O=C(NC1CCNCC1)c1n[nH]cc1NC(=O)c1c(Cl)cccc1Cl [Example 150] cannot be ordered by IC50: under 20 µM for the first, under 20 µM for the second.

Cc1[nH]nc(C(=O)Nc2ccc(F)cc2)c1NC(=O)c1c(F)cccc1F [Example 80] and COc1cccc(OC)c1C(=O)Nc1c[nH]nc1C(=O)Nc1ccc(F)cc1 [Example 60] cannot be ordered by IC50: under 20 µM for the first, under 20 µM for the second.

O=C(NC1CCC(O)CC1)c1n[nH]cc1NC(=O)c1c(F)cccc1F (centres unmarked) [Example 95] and CCOC(=O)C1CCC(NC(=O)c2n[nH]cc2NC(=O)c2c(F)cccc2F)CC1 (centres unmarked) [Example 83A, 4-{[4-(2,6-difluoro-benzoylamino)-1H-pyrazole-3-carbonyl]-amino}-cyclohexanecarboxylic acid ethyl ester] cannot be ordered by IC50: under 20 µM for the first, under 20 µM for the second.

O=C(CCc1ccc(Cl)cc1)Nc1c[nH]nc1C(=O)Nc1ccc(F)cc1 [Example 10, 4-[3-(4-Chloro-phenyl)-propionylamino]-1H-pyrazole-3-carboxylic acid (4-fluoro-phenyl)-amide] and O=C(Nc1c[nH]nc1C(=O)Nc1ccc(F)cc1)c1ccc(CO)cc1 [Example 44, 4-(4-Hydroxymethyl-benzoylamino)-1H-pyrazole-3-carboxylic acid (4-fluoro-phenyl)-amide] cannot be ordered by IC50: under 20 µM for the first, under 20 µM for the second.

O=C(NC1CCNC1)c1n[nH]cc1NC(=O)c1c(F)cccc1F (centres unmarked) [Example 185] and O=C(NCC1CCCNC1)c1n[nH]cc1NC(=O)c1c(F)cccc1F (centres unmarked) [Example 98] cannot be ordered by IC50: under 20 µM for the first, under 20 µM for the second.

O=C(Nc1cccc(CO)c1)c1n[nH]cc1NC(=O)c1c(F)cccc1F [Example 73] and O=C(Nc1cccc(CN2CCOCC2)c1)c1n[nH]cc1NC(=O)c1c(F)cccc1F [Example 74] cannot be ordered by IC50: under 20 µM for the first, under 20 µM for the second.

Cc1ccccc1C(=O)Nc1c[nH]nc1C(=O)Nc1ccc(F)cc1 [Example 46, 4-(2-Methyl-benzoylamino)-1H-pyrazole-3-carboxylic acid (4-fluoro-phenyl)-amide] and O=C(Nc1c[nH]nc1C(=O)Nc1ccc(F)cc1)c1ccc2ccccc2n1 [Example 49, Quinoline-2-carboxylic acid[3-(4-fluoro-phenylcarbamoyl)-1H-pyrazol-4-yl]-amide] cannot be ordered by IC50: under 20 µM for the first, under 100 µM for the second.

O=C(Nc1cc(F)ccc1OCCN1CCCC1)c1n[nH]cc1NC(=O)c1c(F)cccc1F [Example 166, 4-(2,6-Difluoro-benzoylamino)-1H-pyrazole-3-carboxylic acid[5-fluoro-2-(2-pyrrolidin-1-yl-ethoxy)-phenyl]-amide] and O=C(Nc1c[nH]nc1C(=O)Nc1ccc(F)cc1)c1ccccc1OCCN1CCCC1 [Example 52, 4-[2-(2-Pyrrolidin-1-yl-ethoxy)-benzoylamino]-1H-pyrazole-3-carboxylic acid 4-fluorophenylamide] cannot be ordered by IC50: under 20 µM for the first, under 20 µM for the second.

O=C(NCC1CCCCC1)c1n[nH]cc1NC(=O)c1c(F)cccc1F [Example 69] and O=C(NCC1CC1)c1n[nH]cc1NC(=O)c1c(F)cccc1F [Example 79] cannot be ordered by IC50: under 20 µM for the first, under 20 µM for the second.

O=C(NC1CCN(C2CCOCC2)CC1)c1n[nH]cc1NC(=O)c1c(F)cccc1F [Example 221] and O=C(NCC1CCOCC1)c1n[nH]cc1NC(=O)c1c(F)cccc1F [Example 67] cannot be ordered by IC50: under 20 µM for the first, under 20 µM for the second.

COC1CCC(NC(=O)c2n[nH]cc2NC(=O)c2c(Cl)cccc2Cl)CC1 (centres unmarked) [Example 210] and O=C(NC1CCN(CC2CCOC2)CC1)c1n[nH]cc1NC(=O)c1c(Cl)cccc1Cl (centres unmarked) [Example 219] cannot be ordered by IC50: under 20 µM for the first, under 20 µM for the second.

CN1CCN(NC(=O)c2n[nH]cc2NC(=O)c2c(Cl)cccc2Cl)CC1 [Example 207] and O=C(Nc1cccnc1)c1n[nH]cc1NC(=O)c1c(Cl)cccc1Cl [Example 218] cannot be ordered by IC50: under 20 µM for the first, under 20 µM for the second.

O=C(Nc1ccncc1)c1n[nH]cc1NC(=O)c1c(Cl)cccc1Cl [Example 220] and O=C(Nc1cccnc1)c1n[nH]cc1NC(=O)c1c(F)cccc1F [Example 223] cannot be ordered by IC50: under 20 µM for the first, under 20 µM for the second.

O=C(Nc1c[nH]nc1C(=O)NC1CCNCC1)c1cccc2c1OCCO2 [Example 192] and O=C(NC1CCNCC1)c1n[nH]cc1NC(=O)c1cnn2ccccc12 [Example 193] cannot be ordered by IC50: under 20 µM for the first, under 20 µM for the second.

O=C(NCc1ccccc1Cl)c1n[nH]cc1NC(=O)c1c(F)cccc1F [Example 91] and O=C(NCc1ccccc1F)c1n[nH]cc1NC(=O)c1c(F)cccc1F [Example 92] cannot be ordered by IC50: under 20 µM for the first, under 20 µM for the second.

O=C(Nc1c[nH]nc1C(=O)Nc1ccc(F)cc1)c1ccco1 [Example 38, 4-[(Furan-2-carbonyl)-amino]-1H-pyrazole-3-carboxylic acid (4-fluoro-phenyl)-amide] and O=C(Nc1c[nH]nc1C(=O)Nc1ccc(F)cc1)c1ccsc1 [Example 50, 4-[(Thiophene-3-carbonyl)-amino]-1H-pyrazole-3-carboxylic acid (4-fluoro-phenyl)-amide] cannot be ordered by IC50: under 100 µM for the first, under 20 µM for the second.

CN1CCN(c2cc(F)cc(C(=O)Nc3c[nH]nc3C(=O)NC3CCC(C(C)(C)C)CC3)c2)CC1 (centres unmarked) [Example 214] and O=C(N[C@@H]1CN2CCC1CC2)c1n[nH]cc1NC(=O)c1c(F)cccc1F [Example 216] cannot be ordered by IC50: under 20 µM for the first, under 100 µM for the second.

Cn1nc(C(C)(C)C)cc1C(=O)Nc1c[nH]nc1C(=O)NCC1CC1 [Example 183] and CC(C)(C)OC(=O)N1CCCC(CNC(=O)c2n[nH]cc2NC(=O)c2c(F)cccc2F)C1 (centres unmarked) [Example 97] cannot be ordered by IC50: under 100 µM for the first, under 20 µM for the second.

O=C(Nc1ccc(F)cc1)c1n[nH]cc1NC(=O)C1CCCCC1 [Example 27, 4-(Cyclohexanecarbonyl-amino)-1H-pyrazole-3-carboxylic acid (4-fluoro-phenyl)-amide] and COc1cccc(F)c1C(=O)Nc1c[nH]nc1C(=O)Nc1cccnc1 [Example 222] cannot be ordered by IC50: under 20 µM for the first, under 20 µM for the second.

O=C(NCc1ccccn1)c1n[nH]cc1NC(=O)c1c(F)cccc1F [Example 89] showed an IC50 of under 100 µM.
